Structures can show the parent of a compound that is named as a salt.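 Step 1: Grow cells in 96-well plates. Step 2: Expose to compound for 48 hours at 5 concentrations. Step 3: Interpolate endpoints linearly; if unreached, use highest concentration. At the GI50, growth is halved.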 The source made the active and inactive calls. Rule as the data show it: active = GI50 up to about 1.1 µM and inactive = higher.
Key:
Assay in all cases: NCI-60 cell line screen, 48 h
SK-MEL-28 = test system: SK-MEL-28
TK-10 = test system: TK-10
UO-31 = test system: UO-31
A498 = test system: A498
SF-268 = test system: SF-268
SR = test system: SR
786-0 = test system: 786-0
NCI-H226 = test system: NCI-H226
KM12 = test system: KM12
MOLT-4 = test system: MOLT-4
UACC-257 = test system: UACC-257
HOP-92 = test system: HOP-92
CAKI-1 = test system: CAKI-1
SNB-78 = test system: SNB-78
SK-OV-3 = test system: SK-OV-3
OVCAR-5 = test system: OVCAR-5
HL-60 = test system: HL-60
SN12C = test system: SN12C
CCRF-CEM = test system: CCRF-CEM
NCI/ADR-RES = test system: NCI/ADR-RES

Row | SMILES | GI50 (SK-MEL-28) | GI50 (TK-10) | GI50 (UO-31) | GI50 (A498) | GI50 (SF-268) | GI50 (SR) | GI50 (786-0) | GI50 (NCI-H226) | GI50 (KM12) | GI50 (MOLT-4) | GI50 (UACC-257) | GI50 (HOP-92) | GI50 (CAKI-1) | GI50 (SNB-78) | GI50 (SK-OV-3) | GI50 (OVCAR-5) | GI50 (HL-60) | GI50 (SN12C) | GI50 (CCRF-CEM) | GI50 (NCI/ADR-RES)
1 | C=C(C)C1CC2C(C)=C(OC(C)=O)C1n1c(=O)c3cc4ccccc4cc3c(=O)n12 (configuration not stated) | > 100 µM (inactive) | > 100 µM (inactive) | > 83 µM (inactive) | > 84.5 µM (inactive) | 81.3 µM (inactive) | 36 µM (inactive) | > 95.5 µM (inactive) | 34.7 µM (inactive) | > 82 µM (inactive) | 32.7 µM (inactive) | > 100 µM (inactive) | 28.6 µM (inactive) | 62.2 µM (inactive) | 95.9 µM (inactive) | > 100 µM (inactive) | > 100 µM (inactive) | 1.41 µM (inactive) | 98.2 µM (inactive) |  | 
2 | CCOC(=O)C1Cc2ccc3c4c(ccc(c24)C1)CC(C(=O)OCC)C3 | > 100 µM (inactive) | > 100 µM (inactive) | > 100 µM (inactive) | > 100 µM (inactive) | > 100 µM (inactive) | > 100 µM (inactive) | > 100 µM (inactive) | > 100 µM (inactive) | > 100 µM (inactive) | > 100 µM (inactive) | > 100 µM (inactive) | > 100 µM (inactive) |  | > 100 µM (inactive) | > 100 µM (inactive) | > 100 µM (inactive) | > 100 µM (inactive) | > 100 µM (inactive) | > 100 µM (inactive) | 
3 | CCOC(=O)C1(C)CCC(C(=O)OC)C1=O (configuration not stated) | > 100 µM (inactive) | > 100 µM (inactive) | > 100 µM (inactive) | > 100 µM (inactive) | > 100 µM (inactive) | 24.6 µM (inactive) | > 100 µM (inactive) | > 100 µM (inactive) | > 100 µM (inactive) | 87.9 µM (inactive) | > 100 µM (inactive) | > 100 µM (inactive) | > 100 µM (inactive) | > 100 µM (inactive) | > 100 µM (inactive) | > 100 µM (inactive) | 53.1 µM (inactive) | 42.9 µM (inactive) | 21.9 µM (inactive) | 
4 | COc1cc(/C=C/C(=N\NC(=O)c2ccccc2)c2sc(Nc3ccc(Cl)c(Cl)c3)nc2C)ccc1O | 40.6 µM (inactive) | 37.5 µM (inactive) | 28.8 µM (inactive) |  | 38.6 µM (inactive) | 22.3 µM (inactive) | 41.2 µM (inactive) | 20.5 µM (inactive) | 30.5 µM (inactive) | 20.7 µM (inactive) | 29.6 µM (inactive) | < 0.01 µM (active) | 36.4 µM (inactive) | 29.3 µM (inactive) | 70.3 µM (inactive) | 25.6 µM (inactive) | 16.1 µM (inactive) | 33 µM (inactive) | 27.9 µM (inactive) | 
5 | CCCCCCCCCCCCCC(=O)OC(/C=C/C(C)C)C(O)C(O)C(OC)C(=O)NC1CCCCN(C)C1=O (configuration not stated) | 3.61 µM (inactive) | 7.05 µM (inactive) | 1.34 µM (inactive) | 4.67 µM (inactive) | 5.27 µM (inactive) | 0.773 µM (active) | 1.28 µM (inactive) | 4.85 µM (inactive) | 7.71 µM (inactive) | 2.7 µM (inactive) | 4.84 µM (inactive) | 4 µM (inactive) | 1.19 µM (inactive) | 4.8 µM (inactive) | 4.49 µM (inactive) | 4.36 µM (inactive) | 1.74 µM (inactive) | 3.23 µM (inactive) | 3.95 µM (inactive) | > 10 µM (inactive)
6 | C[C@]12CC=CC(=O)[C@@]1(C)CCC(=O)C2 | > 100 µM (inactive) | > 100 µM (inactive) | > 100 µM (inactive) | > 100 µM (inactive) | > 100 µM (inactive) | > 100 µM (inactive) | > 100 µM (inactive) | > 100 µM (inactive) | > 100 µM (inactive) | > 100 µM (inactive) | > 100 µM (inactive) | > 100 µM (inactive) | > 100 µM (inactive) | > 100 µM (inactive) | > 100 µM (inactive) | > 100 µM (inactive) | > 100 µM (inactive) | > 100 µM (inactive) | > 100 µM (inactive) | 
7 | Cc1n(-c2ccccc2)c2c([n+]1Cc1ccc([N+](=O)[O-])cc1)C(=O)c1ccccc1C2=O | 1.81 µM (inactive) | 7.66 µM (inactive) | 13.1 µM (inactive) | 12.2 µM (inactive) | 1.75 µM (inactive) | 1.72 µM (inactive) | 4.31 µM (inactive) | 5.43 µM (inactive) | 2.29 µM (inactive) | 0.59 µM (active) | 1.69 µM (inactive) | 2.3 µM (inactive) | 15.7 µM (inactive) | 2.88 µM (inactive) | 4.3 µM (inactive) | 2.02 µM (inactive) | 0.409 µM (active) | 1.64 µM (inactive) | 1.82 µM (inactive) | 2.05 µM (inactive)
8 | CCCCCCCCCC1CC(=O)Oc2cccc(O)c21 (configuration not stated) | 29.6 µM (inactive) | 36.2 µM (inactive) | 19.5 µM (inactive) | 22.1 µM (inactive) | 30.3 µM (inactive) | 23.2 µM (inactive) | 10.1 µM (inactive) | 6.84 µM (inactive) | 12.5 µM (inactive) | 26.7 µM (inactive) | 41.3 µM (inactive) | 34 µM (inactive) | 32.7 µM (inactive) | 42 µM (inactive) | 7.69 µM (inactive) | 28.3 µM (inactive) | 27.9 µM (inactive) | 6.85 µM (inactive) | 27.4 µM (inactive) | 
9 | COc1cc2c(cc1O)CC13CCC(=O)N1CCc1cc(OC)c(O)c-2c13 (configuration not stated) | > 68.1 µM (inactive) | > 68.1 µM (inactive) | > 68.1 µM (inactive) | > 68.1 µM (inactive) | > 68.1 µM (inactive) | > 68.1 µM (inactive) | > 68.1 µM (inactive) | > 68.1 µM (inactive) |  | > 68.1 µM (inactive) | > 68.1 µM (inactive) | > 68.1 µM (inactive) | > 68.1 µM (inactive) | > 68.1 µM (inactive) |  | > 68.1 µM (inactive) | > 68.1 µM (inactive) | > 68.1 µM (inactive) | > 68.1 µM (inactive) | 
10 | NCCSSCCN [CYSTAMINE HYDROCHLORIDE] | > 100 µM (inactive) | > 100 µM (inactive) | > 100 µM (inactive) | > 100 µM (inactive) | > 100 µM (inactive) | > 100 µM (inactive) | > 100 µM (inactive) | > 100 µM (inactive) | > 100 µM (inactive) | > 100 µM (inactive) |  | > 100 µM (inactive) | > 100 µM (inactive) | > 100 µM (inactive) | > 100 µM (inactive) | > 100 µM (inactive) | > 100 µM (inactive) | > 100 µM (inactive) | 56.1 µM (inactive) | > 100 µM (inactive)

— ChEMBL document CHEMBL1201862, “PubChem BioAssay data set” (2004)
